Assay results taken from patent US9096550B2, “Bryostatin analogues and methods of making and using thereof” (UNIVERSITY OF UTAH RESEARCH FOUNDATION, priority 2008, dated 2015).

Legend:
Type in all cases: cell-based, human
[1] = tested on: LNCaP cells; assay: Apoptosis of LNCaP cells (Yo-Pro-1/7-AAD flow cytometry); conditions: 48 hr; for induction of apoptosis in LNCaP cells: compound alone
Experimental: FIGS. 12A-D show the effect of different compounds on the proliferation and apoptosis of LNCaP cells. […] Time-elapsed images were taken with an Incucyte imaging system every hour for 4 days. The proliferation of LNCaP cells is presented as increase in confluency (read by the instrument) at 80 hrs. Data represent the means+SEM of three independent experiments. […] Apoptosis was measured 2 days after treatment by flow cytometry using 7-AAD and Yo-Pro-1 as described in Materials and Methods. Data represent the means+SEM of three independent experiments.
LNCaP cells treated for 48 hours with the different drugs or with DMSO as control were washed and re-suspended in phosphate buffered saline. Yo-Pro-1 (Invitrogen, Carlsbad, Calif.) was added to a final concentration of 1 μM and the cells were incubated for 20 min at 4° C. in the dark. 7-Aminoactinomycin D (7-AAD) (Invitrogen, Carlsbad, Calif.) was then added at a 5 μg/mL final concentration 10 minutes before analysis by flow cytometry using the FACSCalibur system (Becton Dickinson, Mountain View, Calif.). Data were analyzed with FlowJo 7 (Tree Star Inc., Ashland, Oreg.). The Yo-Pro-1 positive cells were considered apoptotic and were expressed as % of total cells. Western blot analysis of treated LNCaP cell lysates was performed as described previously using rabbit anti-cFos, rabbit anti-PKC delta, rabbit anti-phospho-tyrosine 311 of PKC delta or rabbit anti-β-actin antibodies.

[2] = tested on: U937 cells; assay: Attachment of U937 cells; conditions: for attachment of U937 cells: compound alone, 72 hours
Experimental: (§1) U937 cells (Sundstrom, C.; Nilsson, K.: Establishment and characterization of a human histiocytic lymphoma cell line (U-937). Int. J. Cancer 1976, 17: 565-577.), purchased from ATCC (Manassas, Va.) and cultured in RPMI-1640 medium supplemented with 10% FBS (ATCC, Manassas, Va.), were plated in 35 mm dishes at a density of 2×10^5 living cells/ml and treated with different concentrations of the drugs or DMSO. After 72 hours, the number of cells in the supernatant (non-attached cells) and the number of attached cells (after trypsinization) were counted using a Beckman particle counter (Beckman Coulter Inc., Fullerton, Calif.). The number of attached cells is expressed as percent of total cells (FIGS. 8-10).
(§2) U937 cells were treated with PMA (0.1-100 nM), bryostatin 1 (1-1000 nM), the indicated compound (1-1000 nM), 10 nM PMA with different concentrations of bryostatin 1 (1-1000 nM) or 10 nM PMA with different concentrations of indicated compound (1-1000 nM) for 72 hours. The number of attached cells and total cells were counted and the attached cells were graphed as percent of total cells. The bars and error bars represent the average and the standard error of the mean of five independent experiment (FIGS. 8-10).
(§3) U937 cells (Sundstrom and Nilsson, 1976), purchased from ATCC (Manassas, Va.) and cultured in RPMI-1640 medium supplemented with 10% FBS (ATCC, Manassas, Va.), were plated in 35 mm dishes at a density of 1×10^5 living cells/ml and treated with different concentrations of the drugs or DMSO. After 72 hours, the number of cells in the supernatant (non-attached cells) and the number of attached cells (after trypsinization) were counted using a particle counter. The number of attached cells is expressed as percent of total cells.
(§4) U937 cells were treated with PMA (0.01-100 nM), bryostatin1 (0.1-1000 nM), analogue 12 (MERLE 28) (0.1-1000 nM), 10 nM PMA with different concentrations of bryostatin 1 (0.1-1000 nM) or 10 nM PMA with different concentrations of analogue 12 (0.1-1000 nM). The number of attached cells and total cells were counted and the attached cells were graphed as percent of total cells. The bars and error bars represent the average and the standard error of the mean of at least three independent experiments.
as §3, with “U-937” for “U937”
as §2, with “U-937” for “U937”, “at least three” for “five”, “experiments.” for “experiment (FIGS. 8-10).”

[3] = tested on: U937 cells; assay: Inhibition of U937 cell proliferation; conditions: for inhibition of U937 cell proliferation: compound alone
Experimental: as §1
as §2, with “nM).” for “nM) for 72 hours.”, “attached and non-attached” for “attached”, “was” for “and total cells were”, “number” for “attached cells were graphed as percent”, “cells was expressed as % of control.” for “cells.”, “experiments” for “experiment”
as §3
as §4, with “12” for “12 (MERLE 28)”, “The numbers” for “The number”, “attached” for “attached cells”, “and non-attached” for “and total”, “the number” for “the attached cells were graphed as percent”, “total cells was expressed as % of control.” for “total cells.”
as §3, with “U-937” for “U937”
U-937 cells were treated with PMA (0.1-100 nM), bryostatin 1 (1-1000 nM), the indicated compound (1-1000 nM), 10 nM PMA with different concentrations of bryostatin 1 (1-1000 nM) or 10 nM PMA with different concentrations of indicated compound (1-1000 nM). The number of attached and non-attached cells was counted and the number of total cells was expressed as % of control. The bars and error bars represent the average and the standard error of the mean of at least three independent experiments.

[4] = 10 nM PMA with different concentrations of compound

## CCC/C=C/C=C/C(=O)O[C@H]1/C(=C/C(=O)OC)C[C@H]2C[C@H]([C@@H](C)O)OC(=O)C[C@H](O)C[C@@H]3C[C@H](OC(C)=O)C(C)(C)[C@](O)(C[C@@H]4C/C(=C/C(=O)OC)C[C@H](/C=C/C(C)(C)[C@]1(O)O2)O4)O3 [bryostatin 1]
[1]; 300 nM PMA in combination with 1000 nM compound
  block of induction of apoptosis by PMA in LNCaP cells: largely blocked the induction of apoptosis by PMA
[1]
  induction of apoptosis in LNCaP cells: little effect
[2]; [4]
  block of PMA-induced attachment of U937 cells: blocks the effect of the phorbol ester in a dose-dependent manner
[2]
  attachment of U937 cells: much diminished effect
[2]; listed as Bryostatin 1
  attachment of U937 cells: much less effect on either response
[3]; [4]
  block of PMA inhibition of U937 cell proliferation: able to block the effect of PMA in a dose dependent manner
[3]
  inhibition of U937 cell proliferation: not strongly antiproliferative
[3]; listed as Bryostatin 1
  inhibition of U937 cell proliferation: much less effect on either response

## CCCCCCCCCCCCCC(=O)O[C@@H]1[C@@H](C)[C@@]2(O)[C@@H](C=C(CO)C[C@]3(O)C(=O)C(C)=C[C@@H]23)[C@@H]2C(C)(C)[C@]12OC(C)=O [PMA]
[1]
  induction of apoptosis in LNCaP cells: induced apoptosis
[2]
  attachment of U937 cells: induces attachment
[3]
  inhibition of U937 cell proliferation: inhibits cell proliferation
